The values below come from US20030100548A1, “Arylpiperazines and their use as metallaproteinase inhibiting agents (mmp)” (priority 2000, published 2003).

What is called melting point is the temperature of the solid-liquid transition. Compound `O=S(=O)(CC(CS)Cc1ccccc1)N1CCN(c2ccc(F)cc2)CC1` (stereo not shown) [Example 1, N-(4-fluorophenyl)-N′-(2-benzyl-3-mercaptopropane-1-sulphonyl)-piperazine] returned a melting point of 73 °C.
